According to patent US12364755B2, “Method for obtaining globally activated monocytes” (Transimmune AG, priority 2014, dated 2025):
No end group written: not given here.

Columns and labels:
Type in all cases: cell-based, human
GILZ [1] = experiment: siRNA-mediated knockdown of GILZ in MoDC; settings: siRNA experiments, ELISA
Description: Silencer select pre-designed and validated GILZ siRNA (Invitrogen), with off-target prediction algorithms, was used to knockdown GILZ expression. Mo-DC were transfected using Lipofectamine RNAiMAX Reagent (Invitrogen). RNAi duplex and lipofectamine reagent were incubated together for 20 min, then added to MoDC cultures and incubated for 2 hr at 37° C. and 5% CO2. Transfected MoDC were treated in an identical fashion as described for the MoDC/lymphocyte co-cultures. MoDC were also transfected with scramble siRNA.
RNA was isolated from CD11c MoDC using QIAShredder columns (QIAGEN) and the RNeasy Mini Kit (QIAGEN) with on-column Dnase I treatment (QIAGEN). RNA yield and purity were assessed using a NanoDrop ND-1000 spectrophotometer. cDNA was obtained using the High Capacity cDNA Reverse Transcription Kit (Applied Biosystems) in a 96-well thcrmocycicr (MJ Research PTC-200). TaqMan real-time PCR was used to detect transcripts of GILZ, CD80, and CD86. Primers and probes were obtained as pre-designed and validated Taqman Gene Expression Assays (Applied Biosystems). SYBR green real-time PCR (Applied Biosystems) was used to detect transcripts of IL-12, IL-10, IL-6, TNF-alpha, and TGF-β. Primers were designed to span intron junctions using Primer3Plus. Primer melting curves were obtained to confirm a single product. HPRT-1 and GAPDH were used as reference genes. Samples were run in triplicate on a 7500 Real Time PCR System (Applied Biosystems). The delta-delta C(t) method was used to calculate the fold change.
(§1) Culture supernatants were analyzed in a multiplex format utilizing magnetic beads to IL-6, IL-8, IL-10, IL-12p70, TNF-a, RANTES, MCP-1, and MIP-1β (BioRad Laboratories). For siRNA experiments, supernatants were analyzed with enzyme-linked immunosorbent assay (ELISA) kits for IL-10 (R&D Systems) and IL-12p70 (Enzo Life Science). All samples and standards were run in duplicate and analyzed using the LUMINEX 200 (LUMINEX), or the BioTek EL800 (BioTek).

MoDC = experiment: Cytokine quantification in culture supernatants after LPS stimulation; settings: for IL-10 to IL-12p70 ratio: after LPS stimulation, untreated MoDC 6.7
Description: (§2) Non-adherent cells (purity: 66.0±4.5% CD3^+) removed during plastic adherence will now be generally referred to as lymphocytes. Lymphocytes were treated with 8-MOP (100 ng/mL) and UVA (1 J/cm^2), washed with PBS, and co-cultured in complete media at 37° C. and 5% CO2 with either PUVA-treated or untreated-MoDC in a ratio of 5 or 10 lymphocytes to 1 MoDC. MoDC treated for 24 hr with 100 nM dexamethasone (Sigma) served as the positive control group. After 24 hr, cells were harvested and MoDC were re-purified.
as §1

GILZ [2] = experiment: GILZ mRNA expression in CD11c+ MoDC (real-time PCR); settings: for GILZ up-regulation, fold change relative to untreated MoDC cultured alone: 24 hr after co-culture/treatment (FIG. 13B)
Description: The tubes emitted UVA light ranging from 320 to 400 nm. The UVA irradiance (power, W/m^2) was measured using a photodiode. […] Non-adherent cells (purity: 66.0±4.5% CD3^+) removed during plastic adherence will now be generally referred to as lymphocytes. […] RNA yield and purity were assessed using a NanoDrop ND-1000 spectrophotometer. cDNA was obtained using the High Capacity cDNA Reverse Transcription Kit (Applied Biosystems) in a 96-well thcrmocycicr (MJ Research PTC-200). TaqMan real-time PCR was used to detect transcripts of GILZ, CD80, and CD86. Primers and probes were obtained as pre-designed and validated Taqman Gene Expression Assays (Applied Biosystems). SYBR green real-time PCR (Applied Biosystems) was used to detect transcripts of IL-12, IL-10, IL-6, TNF-alpha, and TGF-β. Primers were designed to span intron junctions using Primer3Plus. Primer melting curves were obtained to confirm a single product. HPRT-1 and GAPDH were used as reference genes. Samples were run in triplicate on a 7500 Real Time PCR System (Applied Biosystems). The delta-delta C(t) method was used to calculate the fold change.

lymphocytes [3] = experiment: Apoptosis of lymphocytes (Annexin-V/7-AAD)
Description: as §2, with “Lymphocytes” for “Non-adherent cells (purity: 66.0±4.5% CD3^+) removed during plastic adherence will now be generally referred to as lymphocytes. Lymphocytes”
(§3) Monoclonal antibodies included HLA-DR, CD80, CD83, CD3, CD86, CD14, CD11c and GILZ. Antibodies were obtained from Beckman-Coulter and eBioscience and were used at their pre-determined optimal dilutions. Apoptosis was assessed using the Annexin-V Apoptosis Detection Kit (eBioscience), with Annexin-V recognizing phosphatidylserine (PS) on the surface of apoptotic cells. 7-AAD substituted for PI as the cell viability dye. Cells displaying an Annexin-V^+/7-AAD^− phenotype were classified as early apoptotic cells, and cells displaying an Annexin-V^+/7-AAD^+ phenotype were classified as late apoptotic cells. Dual membrane and intracytoplasmic staining was performed using the lntraPrep fix and permeabilization kit (Beckman-Coulter). Background staining was established with appropriate isotype and fluorescence minus one controls. Immunofluorescence was analyzed using a FACSCalibur L (BD Biosciences) within 2 hr of fixation with 2% paraformaldehyde. A minimum of 10,000 events were collected for each group.

CD11c+ MoDC = experiment: Apoptosis of CD11c+ MoDC (Annexin-V/7-AAD); settings: 24 hr
Description: Cultures were incubated with 8-MOP (Uvadex, 20 μg/mL) for 30 min in the dark, and then irradiated with a desktop UVA light box containing a series of 12 linear fluorescent tubes. The tubes emitted UVA light ranging from 320 to 400 nm. The UVA irradiance (power, W/m^2) was measured using a photodiode. Given a measured irradiance and the absorption properties of the various components of the system, it was possible to determine the time (sec) needed to expose the cells to deliver a given dose of UVA radiation (J/cm^2).
as §3

lymphocytes [4] = experiment: Apoptosis of ECP-processed lymphocytes after overnight incubation; settings: UVA-activated 8-MOP
[5] = tested on: monocyte-platelet interactions; experiment: Monocyte-platelet interactions in flow (receptor-ligand studies); settings: wall shear stress 0.5 dyne/cm2; relative to P+RGD+ maximum
Description: Platelet-coated Vena8 channels were pre-treated with either 40 μg/ml anti-P-selectin (R&D Systems) or 40 μg/ml of an isotype control for 30 minutes at room temperature, then washed with 5× the volume RPMI. Mononuclear cell suspensions were pre-treated with either RGD or DGR peptides at a concentration of 2.5 mM. Video samples lasting 400 frames (26.3 seconds) were recorded 60 seconds after commencement of flow using a lower power field of view spanning 400 microns and centered at 7500 microns from the flow start point.

platelets [6] = experiment: Platelet adhesion to fibrinogen-coated plates in flow after peptide pre-treatment of platelets; settings: platelets (PRP) pre-incubated with peptide 2 mM, 20 minutes
Description: (§4) Platelet adhesion experiments were performed using the Vena8 flow chamber described above. Fibrinogen and fibronectin (Sigma) were dissolved in PBS to a final concentration of 200 mcg/ml. Channels of the Vena8 chips were incubated at room temperature in a humidified chamber for 2 hours with the protein solution, autologous plasma, or PBS alone. The channels were washed with 5x the volume RPMI. Platelet-rich-plasma was then perfused through the protein-coated channel at the indicated shear-stress, held constant. For each channel, still images were acquired exactly 90 seconds into the experiment at 4 pre-defined low power fields located along the flow path (fields were centered at 2500, 7500, 12500, and 17500 microns from the start point of infusion).
(§5) Some experiments involved pre-treating platelet-rich-plasma with protein fragments prior to infusion through the channels. Small RGD peptides, containing the amino-acid sequence Arg-Gly-Asp-Ser; DRG peptides, contain the amino-acid sequence Ser-Asp-Gly-Arg; or fragment 400-411 of fibrinogen, containing the amino-acid sequence His-His-Leu-Gly-Gly-Ala-Lys-Gln-Ala-Gly-Asp-Val, were incubated at a concentration of 2 mM with PRP for 20 minutes at room temperature. The PRP was then perfused through the channels as previously described.

platelets [7] = experiment: Platelet adhesion to fibronectin-coated plates in flow after peptide pre-treatment of platelets; settings: platelets (PRP) pre-incubated with peptide 2 mM, 20 minutes
Description: as §4, §5

platelets [8] = experiment: Plasma protein influence on platelet adhesion to plates; settings: plates pre-coated with protein; wall shear stress 0.2 to 6.0 dyne/cm^2
Description: as §4

monocytes = experiment: Static co-culture of monocytes with platelets (DC differentiation); settings: platelets activated with thrombin (2 units) vs not activated; 18 hours static culture
Description: When overnight culture was required, cells were centrifuged and resuspended in RPMI-1640 medium (GIBCO), supplemented with 15% AB serum (Gemini Bio-Products) to a final concentration of 5×10^6 cells/ml. Cells were cultured overnight for 18 hours in 12-well polystyrene tissue culture plates (2 ml per well) at 37° C. in 5% CO2.
Monoclonal antibodies for immunophenotyping included CD14 (LPS receptor; monocytes), CD11c (integrin subunit; monocytes and DC), HLA-DR (class II MHC molecule), CD83 (DC marker), CD62p (P-selectin; activated platelets), and CD61 (integrin subunit; platelets). Antibodies were obtained from Beckman Coulter (CD14, CD11c, HLADR, CD83) or Sigma (CD62p, CD61) and used at their pre-determined optimal dilutions. Background staining was established with appropriate isotype controls, and immunofluorescence was analyzed using a FC500 flow cytometer (Beckman Coulter). Two-color membrane staining was performed by adding the pre-determined optimal concentrations of both antibodies directly conjugated to FITC or PE and incubating for 20 min at 4° C., followed by washing to remove unbound antibodies. Combined membrane and cytoplasmic staining was performed following manufacturer's instructions for cell fixation and permeabilization (Intraprep kit, Beckman Coulter). […]

[9] = 24 hr after LPS stimulation, multiplex immunoassay
[10] = 100 ng/mL 8-MOP and 1 J/cm^2 UVA, 24 hr

8-methoxypsoralen [8-MOP]
IL-10 to IL-12p70 ratio, non-transfected MoDC (GILZ [1]): 8.4 | IL-10 to IL-12p70 ratio, transfected with GILZ siRNA (GILZ [1]): 2.9 | production of IL-10 (MoDC; [9]): increased production of IL-10 | production of pro-inflammatory cytokines and chemokines (MoDC; [9]): decreased production of all pro-inflammatory cytokines and chemokines tested, except TNF-α and IFN-γ | IL-10 to IL-12p70 ratio (MoDC): 38.7 | GILZ up-regulation, fold change relative to untreated MoDC cultured alone (GILZ [2]): 2.78 fold

COc1c2occc2cc2ccc(=O)oc12 [8-MOP, 8-methoxypsoralen]
percentage of early apoptotic lymphocytes (lymphocytes [3]; [10]): 44.3% | percentage of late apoptotic lymphocytes (lymphocytes [3]; [10]): 33.7% | time after treatment at which lymphocytes display Annexin-V (lymphocytes [3]; 1 J/cm^2 and 100 ng/mL): 2 h | percentage of late apoptotic CD11c+ cells (CD11c+ MoDC; 1 J/cm^2, all doses of 8-MOP tested): less than 13% | percentage of late apoptotic CD11c+ cells (CD11c+ MoDC; 2 J/cm^2, all doses of 8-MOP tested): less than 16% | percentage of early apoptotic CD11c+ cells compared to untreated MoDC (CD11c+ MoDC; 2 J/cm^2 and 200 ng/mL): increase | 8-MOP concentration needed for an effect on GILZ expression (GILZ [2]; 0.5 J/cm^2 UVA): 200 ng/mL | time GILZ remained significantly elevated (GILZ [2]; 8-MOP and UVA light (FIG. 10F)): 72 h | GILZ expression increase, combination of 8-MOP and UVA light (GILZ [2]; 24 hr, relative to untreated MoDC (FIG. 10E)): 5.5 fold | GILZ expression, 8-MOP alone (GILZ [2]; without UVA light, 24 hr (FIG. 10E)): did not effect GILZ expression | ECP-processed lymphocytes apoptotic (lymphocytes [4]): 99%

C[C@@H]1C[C@H]2[C@@H]3CCC4=CC(=O)C=C[C@]4(C)[C@@]3(F)[C@@H](O)C[C@]2(C)[C@@]1(O)C(=O)CO [dexamethasone]
IL-10 to IL-12p70 ratio, non-transfected MoDC (GILZ [1]): 15.3 | IL-10 to IL-12p70 ratio, transfected with GILZ siRNA (GILZ [1]): 3.9 | IL-10 to IL-12p70 ratio (MoDC): 67.7 | time after treatment at which GILZ is up-regulated (GILZ [2]; 100 nM dex): 2 h | GILZ up-regulation, fold change relative to untreated MoDC cultured alone (GILZ [2]): 4.29 fold

Arg-Gly-Asp-Ser (RGDS; printed: Arg-Gly-Asp-Ser) [RGD peptides]
short-duration monocyte-platelet interactions (less than 3 seconds) [5]: did not significantly alter | platelet adhesion to fibrinogen-coated plates (platelets [6]): not significantly altered | platelet adhesion to fibronectin-coated plates (platelets [7]): decreased adhesion significantly

HHLGGAKQAGDV
platelet adhesion to fibrinogen-coated plates (platelets [6]): significantly decreased | platelet adhesion to fibronectin-coated plates (platelets [7]): had no effect

fibrinogen
platelet adhesion to coated plates in flow (platelets [8]): highest concentrations of platelets adhered

thrombin
monocyte differentiation (cells expressing DC markers) (monocytes): did not cause a discernible difference
